Experimental data published in US8906825B2, “Herbicidal compositions comprising 4-amino-3-chloro-5-fluoro-6-(4-chloro-2-fluoro-3-methoxyphenyl) pyridine-2-carboxylic acid or a derivative thereof and triazolopyrimidine sulfonamides” (Dow AgroSciences LLC, priority 2012, dated 2014).

What was measured:
Type in all cases: in vivo
[1] = test system: IPOHE (Ipomoea hederacea Jacq., ivyleaf morningglory); experiment: Postemergence foliar-applied herbicidal mixtures, direct seeded rice, greenhouse (Example I)
Description: Seeds or nutlets of the desired test plant species were planted in a soil matrix prepared by mixing a loam or sandy loam soil (e.g., 28.6 percent silt, 18.8 percent clay, and 52.6 percent sand, with a pH of about 5.8 and an organic matter content of about 1.8 percent) and calcareous grit in an 80 to 20 ratio. The soil matrix was contained in plastic pots with a volume of 1 quart and a surface area of 83.6 square centimeters (cm^2). When required to ensure good germination and healthy plants, a fungicide treatment and/or other chemical or physical treatment was applied. The plants were grown for 8-22 days in a greenhouse with an approximate 14 h photoperiod which was maintained at about 29° C. during the day and about 26° C. during the night. Nutrients (Peters Excel® 15-5-15 5-Ca 2-Mg and iron chelate) were applied in the irrigation solution as needed and water was added on a regular basis. Supplemental lighting was provided with overhead metal halide 1000-Watt lamps as necessary. The plants were employed for testing when they reached the first through fourth true leaf stage.
Treatments consisted of the acid or esters of 4-amino-3-chloro-5-fluoro-6-(4-chloro-2-fluoro-3-methoxy-phenyl)pyridine-2-carboxylic acid (Compound A), each formulated as an SC (suspension concentrate), and various herbicidal components alone and in combination. Forms of compound A were applied on an acid equivalent basis.
Other herbicidal components were applied on an active ingredient basis and included acetolactate synthase (ALS)-inhibiting herbicides (sulfonamide chemical class) penoxsulam formulated as Grasp® SC, diclosulam formulated as Strongarm®, and cloransulam-methyl formulated as FirstRate®, flumetsulam formulated as Flumetsulam WG, and metosulam formulated as Eclipse®.
Treatment requirements were calculated based upon the rates being tested, the concentration of active ingredient or acid equivalent in the formulation, and a 12 mL application volume at a rate of 187 L/ha.
For treatments comprised of formulated compounds, measured amounts of compounds were placed individually in 25 mL glass vials and diluted in a volume of 1.25% (v/v) Agri-Dex® crop oil concentrated to obtain 12× stock solutions. […] Application solutions were prepared by adding an appropriate amount of each stock solution (e.g., 1 mL) and diluted to the appropriate final concentrations with the addition of 10 mL of an aqueous mixture of 1.25% (v/v) crop oil concentrate so that the final spray solutions contained 1.25+/−0.05% (v/v) crop oil concentrate.
All stock solutions and applications solutions were visually inspected for compound compatibility prior to application. Spray solutions were applied to the plant material with an overhead Mandel track sprayer equipped with an 8002E nozzle calibrated to deliver 187 L/ha over an application area of 0.503 m^2 at a spray height of 18 to 20 inches (46 to 50 cm) above average plant canopy height. Control plants were sprayed in the same manner with the solvent blank.
The treated plants and control plants were placed in a greenhouse as described above and watered by sub-irrigation to prevent wash-off of the test compounds. After approximately 3 weeks, the condition of the test plants as compared with that of the untreated plants was determined visually and scored on a scale of 0 to 100 percent where 0 corresponds to no injury or growth inhibition and 100 corresponds to complete kill.
(§1) Colby's equation was used to determine the herbicidal effects expected from the mixtures (Colby, S. R. 1967. Calculation of the synergistic and antagonistic response of herbicide combinations. Weeds 15:20-22.).
(§2) The following equation was used to calculate the expected activity of mixtures containing two active ingredients, A and B: Expected=A+B−(A×B/100)

[2] = test system: SCPMA (sea clubrush); experiment: In-water applied herbicidal mixtures, transplanted paddy rice, greenhouse (Example II)
Method: (§3) Weed seeds or nutlets of the desired test plant species were planted in puddled soil (mud) prepared by mixing a shredded, non-sterilized mineral soil (50.5 percent silt, 25.5 percent clay, and 24 percent sand, with a pH of about 7.6 and an organic matter content of about 2.9 percent) and water at a 1:1 volumetric ratio. The prepared mud was dispensed in 365 mL aliquots into 16-ounce (oz.) non-perforated plastic pots with a surface area of 86.59 square centimeters (cm^2) leaving a headspace of 3 centimeters in each pot. Mud was allowed to dry overnight prior to planting or transplanting. Rice seeds were planted in Sun Gro MetroMix® 306 planting mixture, which typically has a pH of 6.0 to 6.8 and an organic matter content of about 30 percent, in plastic plug trays. Seedlings at the second or third leaf stage of growth were transplanted into 840 mL of mud contained in 32-oz. non-perforated plastic pots with a surface area of 86.59 cm^2 4 days prior to herbicide application. The paddy was created by filling the headspace of the pots with 2.5 to 3 cm of water. When required to ensure good germination and healthy plants, a fungicide treatment and/or other chemical or physical treatment was applied. The plants were grown for 4-22 days in a greenhouse with an approximate 14 h photoperiod which was maintained at about 29′C during the day and about 26° C. during the night. Nutrients were added as Osmocote® (19:6:12, N:P:K+minor nutrients) at 2 g per 16-oz. pot and 4 g per 32-oz. pot. Water was added on a regular basis to maintain the paddy flood, and supplemental lighting was provided with overhead metal halide 1000-Watt lamps as necessary. The plants were employed for testing when they reached the first through fourth true leaf stage.
(§4) Treatments consisted of the acid or esters of 4-amino-3-chloro-5-fluoro-6-(4-chloro-2-fluoro-3-methoxy-phenyl)pyridine-2-carboxylic acid (compound A) each formulated as an SC and various herbicidal components alone and in combination. Forms of compound A were applied on an acid equivalent basis.
(§5) Other herbicidal components were applied on an active ingredient basis and included acetolactate synthase (ALS)-inhibiting herbicides (sulfonamide chemical class) penoxsulam formulated as Grasp® SC (GF-443), diclosulam formulated as Strongarm®, and cloransulam-methyl formulated as FirstRate®.
(§6) Treatment requirements for each compound or herbicidal component were calculated based upon the rates being tested, the concentration of active ingredient or acid equivalent in the formulation, an application volume of 2 mL per component per pot, and an application area of 86.59 cm^2 per pot.
(§7) For formulated compounds, a measured amount was placed in an individual 100 or 200 mL glass vial and was dissolved in a volume of 1.25% (v/v) Agri-Dex® crop oil concentrate to obtain each application solution.
(§8) Applications were made by injecting with a pipetter appropriate amounts of the application solutions, individually and sequentially, into the aqueous layer of the paddy. Control plants were treated in the same manner with the solvent blank. Applications were made so that all treated plant material received the same concentrations of acetone and crop oil concentrate.
(§9) The treated plants and control plants were placed in a greenhouse as described above and water was added as needed to maintain a paddy flood. After approximately 3 weeks the condition of the test plants as compared with that of the untreated plants was determined visually and scored on a scale of 0 to 100 percent where 0 corresponds to no injury or growth inhibition and 100 corresponds to complete kill.
as §1, §2

[3] = test system: LEFCH (Leptochloa chinensis (L.) Nees, Chinese sprangletop); experiment: as above
Method: as §3, §4, §5, §6, §7, §8, §9, §1, §2

[4] = Compound A Benzyl Ester 8.75 gae/ha
[5] = Compound A Benzyl Ester 17.5 gae/ha

COc1c(Cl)ccc(-c2nc(C(=O)OCc3ccccc3)c(Cl)c(N)c2F)c1F [Compound A Benzyl Ester, benzyl ester of 4-amino-3-chloro-5-fluoro-6-(4-chloro-2-fluoro-3-methoxy-phenyl)pyridine-2-carboxylic acid]
Visual Weed Control (%) - 27 DAA IPOHE Obs ([1]; Compound A Benzyl Ester 4.38 gae/ha): 10% | Visual Weed Control (%) - 27 DAA IPOHE Obs [1, 4]: 10% | Visual Weed Control (%) - 27 DAA IPOHE Obs [1, 5]: 10% | Visual Weed Control (%) - 21 DAA SCPMA Obs ([2]; Compound A Benzyl Ester 48 gae/ha): 0% | Visual Weed Control (%) - 21 DAA SCPMA Obs ([2]; Compound A Benzyl Ester 96 gae/ha): 0% | Visual Weed Control (%) - 25 DAA LEFCH Obs [3, 4]: 50% | Visual Weed Control (%) - 25 DAA LEFCH Obs [3, 5]: 90%

COc1cnc(OC)n2nc(NS(=O)(=O)c3c(OCC(F)F)cccc3C(F)(F)F)nc12 [Penoxsulam, 2-(2,2-difluoroethoxy)-N-(5,8-dimethoxy[1,2,4]triazolo[1,5-c]pyrimidin-2-yl)-6-(trifluoromethyl)benzenesulfonamide, reference compound]
Visual Weed Control (%) - 27 DAA IPOHE Obs ([1]; Penoxsulam 4.38 gai/ha, Table 3): 10% | Visual Weed Control (%) - 27 DAA IPOHE Obs ([1]; Penoxsulam 8.75 gai/ha, Table 1): 15% | Visual Weed Control (%) - 27 DAA IPOHE Obs ([1]; Penoxsulam 8.75 gai/ha, Table 2): 15% | Visual Weed Control (%) - 27 DAA IPOHE Obs ([1]; Penoxsulam 8.75 gai/ha, Table 3): 15% | Visual Weed Control (%) - 27 DAA IPOHE Obs ([1]; Penoxsulam 17.5 gai/ha, Table 1): 20% | Visual Weed Control (%) - 27 DAA IPOHE Obs ([1]; Penoxsulam 17.5 gai/ha, Table 2): 20% | Visual Weed Control (%) - 27 DAA IPOHE Obs ([1]; Penoxsulam 17.5 gai/ha, Table 3): 20% | Visual Weed Control (%) - 21 DAA SCPMA Obs ([2]; Penoxsulam 10 gai/ha): 70% | Visual Weed Control (%) - 21 DAA SCPMA Obs ([2]; Penoxsulam 20 gai/ha): 88% | Visual Weed Control (%) - 21 DAA SCPMA Obs ([2]; Penoxsulam 40 gai/ha): 95% | Visual Weed Control (%) - 25 DAA LEFCH Obs ([3]; Penoxsulam 17.5 gai/ha, Table 11): 0% | Visual Weed Control (%) - 25 DAA LEFCH Obs ([3]; Penoxsulam 35 gai/ha, Table 10): 40% | Visual Weed Control (%) - 25 DAA LEFCH Obs ([3]; Penoxsulam 35 gai/ha, Table 11): 40%
